Source: ChEMBL document CHEMBL1121961, “Synthesis and biological evaluation of 6-ethynyluracil, a thiol-specific alkylating pyrimidine” (J Med Chem, 1982)

Tests used:
Format in all cases: functional, cell-based
Conditions in all cases: Mus musculus
L1210 = experiment: In vitro inhibitory activity against leukemia L1210 cell lines
B16 = experiment: In vitro inhibitory activity against B16 melanoma cell lines
[1] = test system: Lewis lung carcinoma cell line; experiment: In vitro inhibitory activity against lewis lung cell lines

| SMILES | Concentration (L1210) | Concentration (B16) | Concentration [1] |
| --- | --- | --- | --- |
| C#Cc1cc(O)nc(O)n1 | 7 µM | 10 µM | 20 µM |
| Oc1cc(/C=C/C(Br)Br)nc(O)n1 | 1 µM | 1 µM | 8 µM |
